Test results as given in US20140314881A1 (priority 2009, published 2014).
Read-outs that look alike come from different tables or passages of the source.

Columns and labels:
[1] = Creatinine and AST levels following brain death in swine with or without ENO (Example 2); format: in vivo
Method: The levels of creatinine and aspartate aminotransferase (AST) were monitored in two groups of swine following brain death. The level of creatinine is indicative of kidney function. The level of AST is indicative of liver function. For each groups a base line blood sample was taken, brain death was induced, and the second sample was taken after 12 h with or without 50 ppm ENO mixed into the ventilation circuit. […] AST increased in both groups but the magnitude of the increase with ENO was half that observed in the control group (35 to 79 U/l v. 30 to 145 U/l).

red blood cell SNO-Hb = experiment: Circulating SNO-Hb following brain death in swine ventilated with ENO (Example 1); format: in vivo; conditions: 12 hours after brain death
Method: The level of circulating SNO-Hb following brain death in three groups of swine was measured. […] FIG. 1 is a bar graph illustrating the results of administering ENO to an organ after brain death.

[2] = Brain dead cat ventilated with ENO before kidney donation (Example 20); format: in vivo; conditions: Example 20: brain dead cat ventilated with oxygen and 50 ppm ENO, 24 hours
Text: A pet owner presents at a state veterinary college with her cat that was recently struck by car. […] The owner is informed that her cat is brain dead and then provided details about a feline kidney donation program—the owner agrees to have her pet's kidneys transplanted. The animal is intubated and ventilated with oxygen augmented with 50 ppm ENO to preserve organ physiologic status while potential recipients are identified. Two clients of the vet school who own cats with end-stage renal disease are contacted and are grateful for the opportunity to have their pets receive a healthy kidney.

[3] = Physiological response of sheep to simulated altitude with or without ENO (Example 12); format: in vivo; conditions: simulated altitude −4,500 meters, inhalation of 50 ppm ENO
[4] = set-up: species or system human; conditions: in vivo
[5] = ENO administration to organ donors before or during organ procurement (Examples 8-11); format: in vivo, human
Method: A living kidney donor is administered ENO via inhalation during an open nephrectomy or as part of the insufflation gas during a laparoscopic donor nephrectomy. ENO is provided in pressurized cylinders for delivery through the ventilation or insufflation devices. The amount of ENO delivered can be titrated based on blood gas or organ blood flow changes.
A catheter is placed in a large vein of a brain dead patient. The catheter contains a cylindrical bundle of microporous hollow fiber membranes woven into a mat at the end. The catheter is placed within the central venous blood stream in the primary vein that returns blood to the heart. […] A respiratory system is activated and oxygen with 50 ppm ENO flows from a console outside the patient, through the catheter and through the hollow fibers. The fiber membranes are permeable to gases. As a result, oxygen and ENO diffuses into the blood stream from the fibers, while carbon dioxide (CO2) diffuses out of the blood stream into the fibers. Excess O2 and CO2 are removed back through the catheter to the external console.
Patient on respiratory is pronounced dead. Creatine phosphokinase (CPK) leak is indicative of cardiac injury. Patient is started on ENO 20 ppm and further CPK leak is prevented.
Patient dies. […] Kidney function is preserved over durations usually associated with decline in function.

[6] = Example 11: deceased patient, ENO 20 ppm

CCON=O [ENO, ethyl nitrite]
AST level, second sample after 12 h ([1]; 50 ppm ENO in ventilation circuit, 12 h after brain death): 79 U/l
creatinine level (kidney function) ([1]; 50 ppm ENO in ventilation circuit, 12 h after brain death vs base line): unchanged
magnitude of the AST increase relative to control group ([1]; 50 ppm ENO, 12 h after brain death): half
AST level, base line sample ([1]; ENO group, base line before brain death): 35 U/l
change from baseline in red blood cell SNO-Hb concentration (red blood cell SNO-Hb; swine ventilated with 20 ppm ENO): an increase in SNO-Hb
change from baseline in red blood cell SNO-Hb concentration (red blood cell SNO-Hb; swine ventilated with 50 ppm ENO): an increase in SNO-Hb
organ function of donor [2]: maintained organ function
cardiac output, hypoxia/high-altitude-induced increase [3]: reducing
pulmonary arterial pressure (PAP), hypoxia/high-altitude-induced increase [3]: reducing
pulmonary vascular resistance (PVR), hypoxia/high-altitude-induced increase [3]: reducing
systemic vascular resistance (SVR) [3]: restoring SVR
breathing disorder at altitude [4]: not exacerbated
dyspnea during commercial flight [4]: breathing normally
occurrence of Acute Mountain Sickness [4]: No individuals experiences Acute Mountain Sickness
signs of altitude sickness at altitude (prevention) [4]: no sign of altitude sickness
symptoms of altitude mountain sickness [4]: abate
symptoms of high altitude cerebral edema ([4]; iv): abate
symptoms of high altitude pulmonary edema ([4]; iv): abate
symptoms of altitude mountain sickness ([4]; po): abate
kidney transplantation outcome ([5]; Example 8: living kidney donor, ENO via inhalation or insufflation gas during nephrectomy): successfully transplanted
liver transplantation outcome ([5]; Example 9: brain dead patient, oxygen with 50 ppm ENO via intravascular catheter): successfully transplanted
heart transplantation outcome ([5]; Example 10: ENO 20 ppm, heart harvested 24 hours later): successfully transplanted
creatine phosphokinase (CPK) leak (cardiac injury) ([5]; Example 10: patient pronounced dead, ENO 20 ppm): prevented
graft rejection [5, 6]: neither early nor late rejection is observed
kidney transplantation outcome [5, 6]: successfully transplanted
renal function [5, 6]: does not decline
